Measured values from the NIST ThermoML archive (doi:10.1021/je049672l).
Numbers after ± are expanded uncertainties.

Details: for mass density: Vibrating tube method; for vapor or sublimation pressure: Closed cell (Static) method

CC(C)C [2-methylpropane]
Fluid (supercritical or subcritical phases)
Details | mass density [kg/m3]
240 K, 484.1 kPa | 617.68 ± 0.26
240 K, 1027.4 kPa | 618.3 ± 0.27
240 K, 1538.4 kPa | 618.86 ± 0.27
240 K, 2037.8 kPa | 619.41 ± 0.28
240 K, 2522.8 kPa | 619.95 ± 0.28
240 K, 3029.3 kPa | 620.49 ± 0.29
240 K, 3501.9 kPa | 621 ± 0.29
240 K, 4038.4 kPa | 621.58 ± 0.29
240 K, 4542.1 kPa | 622.1 ± 0.3
240 K, 5022.8 kPa | 622.62 ± 0.3
240 K, 5522.1 kPa | 623.14 ± 0.31
240 K, 5987.3 kPa | 623.62 ± 0.31
240 K, 6540.8 kPa | 624.19 ± 0.32
240 K, 7010.9 kPa | 624.66 ± 0.32
260 K, 517.1 kPa | 595.93 ± 0.27
260 K, 947.4 kPa | 596.52 ± 0.27
260 K, 1503.8 kPa | 597.28 ± 0.28
260 K, 1984.7 kPa | 597.94 ± 0.28
260 K, 2532 kPa | 598.66 ± 0.29
260 K, 3005.3 kPa | 599.28 ± 0.29
260 K, 3472.2 kPa | 599.9 ± 0.3
260 K, 4015.9 kPa | 600.6 ± 0.3
260 K, 4464.7 kPa | 601.16 ± 0.31
260 K, 4915.7 kPa | 601.73 ± 0.31
260 K, 5481.6 kPa | 602.44 ± 0.32
260 K, 5953.7 kPa | 603.05 ± 0.32
260 K, 6532 kPa | 603.75 ± 0.33
260 K, 7031.7 kPa | 604.37 ± 0.33
280 K, 512.2 kPa | 573.26 ± 0.27
280 K, 996 kPa | 574.1 ± 0.28
280 K, 1532.9 kPa | 575.01 ± 0.28
280 K, 2000.6 kPa | 575.8 ± 0.29
280 K, 2508.1 kPa | 576.64 ± 0.29
280 K, 2999.4 kPa | 577.44 ± 0.3
280 K, 3506 kPa | 578.27 ± 0.3
280 K, 4015.2 kPa | 579.09 ± 0.31
280 K, 4460.5 kPa | 579.8 ± 0.31
280 K, 4938.8 kPa | 580.54 ± 0.32
280 K, 5494.5 kPa | 581.39 ± 0.33
280 K, 5986.9 kPa | 582.16 ± 0.33
280 K, 6507.2 kPa | 582.93 ± 0.34
280 K, 6980.4 kPa | 583.64 ± 0.34
300 K, 476.5 kPa | 548.51 ± 0.28
300 K, 1017.6 kPa | 549.71 ± 0.29
300 K, 1462.4 kPa | 550.7 ± 0.29
300 K, 1999.9 kPa | 551.86 ± 0.3
300 K, 2533.3 kPa | 552.99 ± 0.3
300 K, 3021.3 kPa | 554.01 ± 0.31
300 K, 3526.2 kPa | 555.05 ± 0.31
300 K, 3965.8 kPa | 555.93 ± 0.32
300 K, 4482.8 kPa | 556.96 ± 0.32
300 K, 4980.2 kPa | 557.93 ± 0.33
300 K, 5467.8 kPa | 558.87 ± 0.34
300 K, 5953.2 kPa | 559.79 ± 0.34
300 K, 6460.3 kPa | 560.72 ± 0.35
300 K, 7025.2 kPa | 561.79 ± 0.35
320 K, 1063 kPa | 522.78 ± 0.29
320 K, 1503.5 kPa | 524.1 ± 0.3
320 K, 2072.9 kPa | 525.74 ± 0.31
320 K, 2548.7 kPa | 527.08 ± 0.31
320 K, 3037.4 kPa | 528.43 ± 0.32
320 K, 3521.6 kPa | 529.72 ± 0.32
320 K, 4027.5 kPa | 531.05 ± 0.33
320 K, 4496.4 kPa | 532.26 ± 0.33
320 K, 4946.7 kPa | 533.39 ± 0.34
320 K, 5450.3 kPa | 534.62 ± 0.35
320 K, 5960.5 kPa | 535.86 ± 0.35
320 K, 6511.5 kPa | 537.15 ± 0.36
320 K, 6995.3 kPa | 538.27 ± 0.37
340 K, 1494.6 kPa | 493.98 ± 0.3
340 K, 2007.1 kPa | 496.16 ± 0.31
340 K, 2499.6 kPa | 498.13 ± 0.32
340 K, 3002.8 kPa | 500.07 ± 0.33
340 K, 3503.8 kPa | 501.94 ± 0.33
340 K, 4023.8 kPa | 503.83 ± 0.34
340 K, 4507.3 kPa | 505.51 ± 0.35
340 K, 5017.1 kPa | 507.23 ± 0.35
340 K, 5520.7 kPa | 508.89 ± 0.36
340 K, 5998.3 kPa | 510.42 ± 0.37
340 K, 6512.9 kPa | 512.03 ± 0.37
340 K, 6962.7 kPa | 513.39 ± 0.38
360 K, 2008.5 kPa | 460.57 ± 0.3
360 K, 2503.6 kPa | 463.81 ± 0.31
360 K, 2997.5 kPa | 466.82 ± 0.32
360 K, 3502.9 kPa | 469.71 ± 0.32
360 K, 4027.6 kPa | 472.55 ± 0.33
360 K, 4532.2 kPa | 475.11 ± 0.34
360 K, 5024.7 kPa | 477.51 ± 0.35
360 K, 5482.2 kPa | 479.63 ± 0.35
360 K, 6006.8 kPa | 481.96 ± 0.36
360 K, 6485.4 kPa | 484.01 ± 0.37
360 K, 6987.7 kPa | 486.08 ± 0.38
380 K, 2517.9 kPa | 417.11 ± 0.29
380 K, 3027.5 kPa | 423.54 ± 0.3
380 K, 3511 kPa | 428.79 ± 0.31
380 K, 4014.9 kPa | 433.63 ± 0.32
380 K, 4487.2 kPa | 437.71 ± 0.32
380 K, 4990.6 kPa | 441.69 ± 0.33
380 K, 5519.1 kPa | 445.53 ± 0.34
380 K, 6019.7 kPa | 448.91 ± 0.35
380 K, 6503.3 kPa | 451.96 ± 0.35
380 K, 6952.1 kPa | 454.64 ± 0.36

Liquid
Details | mass density [kg/m3] | vapor or sublimation pressure [kPa]
240 K | 617.17 ± 0.26 | 40.1 ± 0.5
260 K | 595.32 ± 0.27 | 94.6 ± 0.5
280 K | 572.74 ± 0.27 | 197.8 ± 0.6
300 K | 548.27 ± 0.28 | 368.6 ± 0.7
320 K | 521.48 ± 0.29 | 632.5 ± 1
340 K | 491.87 ± 0.29 | 1013.7 ± 1.6
360 K | 457.33 ± 0.28 | 1541.6 ± 2.4
380 K | 413.34 ± 0.27 | 2250.4 ± 3.5
